Several values for one entry are separate records, joined by “and”; a condition that tells them apart may be missing. Equal values may be shown once. Inconclusive results and toxic doses are left out. How the source made its calls: active means survival T/C of 150% or more; inactive means T/C below 125% in these data.
Test system: P388 leukemia ip, CD2F1 mice, survival T/C
Experiment: NCI In Vivo Anticancer Drug Screen. Data for tumor model P388 Leukemia (intraperitoneal) in CD2F1 (CDF1) mice
Conditions: endpoint: median survival time, higher = longer survival
Procedure, shortened: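 Mice carrying the transplanted tumor received test compound or vehicle. Survival was recorded in each group, and the value is the treated-group measurement divided by that of the vehicle-treated control group.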

[1] = dose: 50.0 mg/kg/injection, schedule: Q01DX005 (ip), vehicle: saline with Tween-80
[2] = dose: 100.0 mg/kg/injection, schedule: Q01DX005 (ip), vehicle: saline with Tween-80
[3] = dose: 200.0 mg/kg/injection, schedule: Q01DX005 (ip), vehicle: saline with Tween-80
[4] = dose: 50.0 mg/kg/injection, schedule: Q01DX009 (ip), vehicle: saline with Tween-80
[5] = dose: 50.0 mg/kg/injection, schedule: Q04DX003 (ip), vehicle: saline
[6] = dose: 100.0 mg/kg/injection, schedule: Q01DX009 (ip), vehicle: saline with Tween-80
[7] = dose: 100.0 mg/kg/injection, schedule: Q04DX003 (ip), vehicle: saline
[8] = dose: 200.0 mg/kg/injection, schedule: Q01DX009 (ip), vehicle: saline with Tween-80
[9] = dose: 400.0 mg/kg/injection, schedule: Q01DX009 (ip), vehicle: saline with Tween-80
[10] = dose: 50.0 mg/kg/injection, schedule: Q01DX009 (ip), vehicle: Klucel (hydroxypropylcellulose) (HPC)
[11] = dose: 100.0 mg/kg/injection, schedule: Q01DX009 (ip), vehicle: Klucel (hydroxypropylcellulose) (HPC)
[12] = dose: 25.0 mg/kg/injection, schedule: Q01DX009 (ip), vehicle: saline with Tween-80
[13] = dose: 50.0 mg/kg/injection, schedule: Q01DX005 (ip), vehicle: Klucel (hydroxypropylcellulose) (HPC)
[14] = dose: 100.0 mg/kg/injection, schedule: Q01DX005 (ip), vehicle: Klucel (hydroxypropylcellulose) (HPC)
[15] = dose: 100.0 mg/kg/injection, schedule: Q04DX003 (ip), vehicle: saline with Tween-80
[16] = dose: 200.0 mg/kg/injection, schedule: Q01DX009 (ip), vehicle: Klucel (hydroxypropylcellulose) (HPC)
[17] = dose: 60.0 mg/kg/injection, schedule: Q01DX005 (ip), vehicle: saline with Tween-80
[18] = dose: 120.0 mg/kg/injection, schedule: Q01DX005 (ip), vehicle: saline with Tween-80
[19] = dose: 240.0 mg/kg/injection, schedule: Q01DX005 (ip), vehicle: saline with Tween-80

Measured: T/C

Cc1ccc2nc(N(C)C)nc-2c2[nH]c(=O)[nH]c12
inactive: dose: 8.25 mg/kg/injection, schedule: Q01DX005 (ip), vehicle: saline 110 % of control | dose: 16.5 mg/kg/injection, schedule: Q01DX005 (ip), vehicle: saline 110 % of control | dose: 33.0 mg/kg/injection, schedule: Q01DX005 (ip), vehicle: saline 107 % of control | dose: 66.0 mg/kg/injection, schedule: Q01DX005 (ip), vehicle: saline 102 % of control

COc1ccc2c(c1O)CN1CCc3cc4c(cc3C1C2)OCO4 (centres undefined)
inactive: [1] 104 % of control | [2] 110 % of control | [3] 115 % of control

CC(=O)O[C@@H]1C(C(=O)[C@@H](C)C(C)C)OCOC1C1CC(=O)NC(=O)C1 (some centres undefined)
inactive: dose: 0.01 mg/kg/injection, schedule: Q01DX009 (ip), vehicle: distilled water + alcohol 100 % of control | dose: 0.03 mg/kg/injection, schedule: Q01DX009 (ip), vehicle: distilled water + alcohol 100 % of control | dose: 0.06 mg/kg/injection, schedule: Q01DX009 (ip), vehicle: distilled water + alcohol 93 % of control | dose: 0.12 mg/kg/injection, schedule: Q01DX009 (ip), vehicle: distilled water + alcohol 98 % of control

CC(=O)OCc1ccc(Cl)cc1
inactive: [4] 99 % of control | [5] 100 % of control | [6] 99 % of control | [7] 104 % of control | [8] 114 % of control | dose: 200.0 mg/kg/injection, schedule: Q04DX003 (ip), vehicle: saline 113 % of control | [9] 123 % of control

CC(C)(C)CC(C)(C)NC(=S)NC1C2CC3CC(C2)CC1C3 (centres undefined)
inactive: [10] 89 % of control | [11] 90 % of control

Cc1sc(C)c(CCl)c1CCl
inactive: dose: 12.5 mg/kg/injection, schedule: Q01DX009 (ip), vehicle: saline with Tween-80 113 % of control | [12] 118 % of control | dose: 37.5 mg/kg/injection, schedule: Q01DX009 (ip), vehicle: saline with Tween-80 122 % of control | [4] 118 % of control

CCCCCCCCCCCC(CCCC)CCCCCCCCCC (centres undefined)
inactive: dose: 50.0 mg/kg/injection, schedule: Q01DX001 (ip), vehicle: saline sonified 100 % of control | dose: 100.0 mg/kg/injection, schedule: Q01DX001 (ip), vehicle: saline sonified 104 % of control | dose: 200.0 mg/kg/injection, schedule: Q01DX001 (ip), vehicle: saline sonified 100 % of control

CCOC(=O)c1c(N)c(=O)oc2c3c(c(O)cc12)OCO3
inactive: [13] 94 % of control | [14] 89 % of control

COc1ccc(NC(=O)N2CCOCC2)cc1
inactive: dose: 50.0 mg/kg/injection, schedule: Q01DX009 (ip), vehicle: saline 92 % of control | dose: 100.0 mg/kg/injection, schedule: Q01DX009 (ip), vehicle: saline 92 % of control | dose: 200.0 mg/kg/injection, schedule: Q01DX009 (ip), vehicle: saline 88 % of control

O=C1C(=Cc2ccc(O)cc2)C(=O)c2ccccc21
inactive: dose: 100.0 mg/kg/injection, schedule: Q04DX002 (ip), vehicle: saline 97 % of control | dose: 200.0 mg/kg/injection, schedule: Q04DX002 (ip), vehicle: saline 99 % of control | dose: 400.0 mg/kg/injection, schedule: Q04DX002 (ip), vehicle: saline 106 % of control

O=C1Cn2c(c3ccccc3nc2=O)N1
inactive: [1] 104 % of control | [2] 103 % of control | [3] 106 % of control

NC(=O)C1CCCCC1C(N)=O (centres undefined)
inactive: [6] 100 % of control | [8] 104 % of control | [9] 104 % of control

Cc1cc2nc(C)nn2c(C)n1
inactive: dose: 25.0 mg/kg/injection, schedule: Q04DX003 (ip), vehicle: saline 104 % of control | [5] 96 % of control | [7] 111 % of control and 88 % of control | dose: 400.0 mg/kg/injection, schedule: Q04DX003 (ip), vehicle: saline 88 % of control

CN1CCCC2C(c3ccccc3)C(C3=NCCCC3)C(c3ccccc3)CC21 (centres undefined)
inactive: [12] 100 % of control | dose: 25.0 mg/kg/injection, schedule: Q04DX003 (ip), vehicle: saline with Tween-80 113 % of control | [4] 100 % of control | dose: 50.0 mg/kg/injection, schedule: Q04DX003 (ip), vehicle: saline with Tween-80 100 % of control | [6] 104 % of control | [15] 100 % of control

CCCCNc1c(C(=O)OCC)cnc2c1cnn2CC
inactive: dose: 100.0 mg/kg/injection, schedule: Q04DX002 (ip), vehicle: saline with Tween-80 102 % of control | dose: 200.0 mg/kg/injection, schedule: Q04DX002 (ip), vehicle: saline with Tween-80 102 % of control | dose: 400.0 mg/kg/injection, schedule: Q04DX002 (ip), vehicle: saline with Tween-80 90 % of control

COc1cc2c[n+](C)c3c4cc(OC)c(OC)cc4c(O)cc3c2cc1OC
inactive: [13] 99 % of control | [14] 97 % of control | dose: 200.0 mg/kg/injection, schedule: Q01DX005 (ip), vehicle: Klucel (hydroxypropylcellulose) (HPC) 99 % of control

CSC1(SC)CCN(C)C1=O
inactive: [12] 90 % of control | [4] 93 % of control | [6] 92 % of control

Cc1cc(C)n(C(N)=NC(=O)c2ccccc2)n1
inactive: [10] 104 % of control and 106 % of control | [11] 100 % of control | [16] 109 % of control

CCCCCCCCCCCCCCCC(=O)N(CCCCN(C)C)CCCCN(C)C
inactive: dose: 1.0 mg/kg/injection, schedule: Q01DX009 (ip), vehicle: saline 86 % of control and 95 % of control | dose: 2.0 mg/kg/injection, schedule: Q01DX009 (ip), vehicle: saline 97 % of control | dose: 4.0 mg/kg/injection, schedule: Q01DX009 (ip), vehicle: saline 97 % of control | dose: 8.0 mg/kg/injection, schedule: Q01DX009 (ip), vehicle: saline 103 % of control

NCCSc1nc(-c2ccccc2)c(-c2ccccc2)o1
inactive: [10] 100 % of control | [11] 100 % of control | [16] 101 % of control

Fc1ccc(-c2nc3ccccn3c2N=Nc2ccccc2)cc1
inactive: [1] 88 % of control | [2] 97 % of control | [3] 94 % of control

Oc1cc2c(cc1C(c1ccc(F)cc1)N1CCCCC1)OCO2 (centres undefined)
inactive: [17] 111 % of control | [18] 116 % of control | [19] 115 % of control

COc1cccc(Nc2ncnc3c2c(=O)n(C)c(=O)n3C)c1
inactive: dose: 25.0 mg/kg/injection, schedule: Q01DX005 (ip), vehicle: saline with Tween-80 91 % of control | [1] 87 % of control | [2] 87 % of control

COC(=O)c1csc(-c2ccc(CO)o2)n1
inactive: [1] 105 % of control | [2] 98 % of control | [3] 93 % of control

COC1=CCC2=C(CCN(C)C2Cc2ccc(OC)cc2)C1 (centres undefined)
inactive: dose: 12.5 mg/kg/injection, schedule: Q01DX005 (ip), vehicle: Klucel (hydroxypropylcellulose) (HPC) 97 % of control | dose: 25.0 mg/kg/injection, schedule: Q01DX005 (ip), vehicle: Klucel (hydroxypropylcellulose) (HPC) 96 % of control | [13] 100 % of control

N=c1c(C(=O)OCc2ccccc2)ncc(CCl)n1O
inactive: [12] 114 % of control | [4] 124 % of control | [6] 123 % of control | [8] 116 % of control

N#Cc1cc2cccn2c2c1cnn2-c1ccccc1
inactive: [17] 105 % of control | [18] 98 % of control | [19] 89 % of control

CC(C)=NNc1nc(N(C)C)nc(N(C)C)n1
inactive: [15] 105 % of control | dose: 200.0 mg/kg/injection, schedule: Q04DX003 (ip), vehicle: saline with Tween-80 105 % of control | dose: 400.0 mg/kg/injection, schedule: Q04DX003 (ip), vehicle: saline with Tween-80 103 % of control

CC1CC(=O)c2c(CO)nn(CCCO)c2C1 (centres undefined)
inactive: dose: 15.0 mg/kg/injection, schedule: Q01DX005 (ip), vehicle: Klucel (hydroxypropylcellulose) (HPC) 101 % of control | dose: 30.0 mg/kg/injection, schedule: Q01DX005 (ip), vehicle: Klucel (hydroxypropylcellulose) (HPC) 102 % of control | dose: 60.0 mg/kg/injection, schedule: Q01DX005 (ip), vehicle: Klucel (hydroxypropylcellulose) (HPC) 101 % of control | dose: 60.0 mg/kg/injection, schedule: Q01DX005 (ip), vehicle: saline 101 % of control

Reference: PubChem BioAssay AID330 (DTP/NCI, 2004)
